Data taken from US8722729B2, “Unsaturated fatty acid monoesters and diesters on ascorbic acid and cosmetic uses thereof” (Pierre Fabre Dermo-Cosmetique, priority 2009, dated 2014).
Marks after values point to notes of the source that are not given here.

What was measured:
keratinocytes HaCaT = experiment: Assay of the synthesis of hyaluronic acid in HaCaT keratinocytes (ELISA); assay type: cell-based, human; details: for Percentage stimulation of the synthesis of hyaluronic acid: 48 h, vs control
Method: The keratinocytes HaCaT are cultured in DMEM culture medium+10% FCS. The cells are treated with the active ingredients to be tested (Table 1) for 48 h at 37° C. The synthesized hyaluronic acid (HA) is assayed in the culture medium using an ELISA type kit (Echelon®).
The percentage activity was determined as follows • percentage variation compared with the control %p/C=([HA]active ingred./[HA]control×100)−100 4.4.2 Results of the Assay of Hyaluronic Acid on the Line of Human Keratinocytes HaCaT

MMP-1 = experiment: Gene expression of MMP-1 in human dermal fibroblasts treated with H2O2 (real-time PCR); assay type: cell-based; details: for RQ (relative quantity of mRNA) MMP-1 / % Inhibition of the level of mRNA expression MMP-1: 3 μM; for RQ (relative quantity of mRNA) MMP-1: senescent fibroblasts stimulated with H2O2, non-treated control = 1; for % Inhibition of the level of mRNA expression MMP-1: vs H2O2 alone
Method: (§1) To evidence the activity of the compounds of general formula (I) against skin ageing and against inflammation, the effect of these compounds was measured on the gene expression of MMP-1, MMP-3 and IL8 in human dermal fibroblasts treated with H2O2, thereby mimicking the process of cellular senescence. The effect of these compounds of general formula (I) was also measured on the synthesis of hyaluronic acid and on hyaluronidase activity. The stimulation of the synthesis of hyaluronic acid also allows skin hydration to be improved and/or restored (Bissett D L. J. Cosmet. Dermatol. 2006 Dec. 5(4): 309-15. Glucosamine: an ingredient with skin and other benefits).
(§2) Human dermal fibroblasts (isolated from discarded operative skin) were cultured in DMEM culture medium+10% FCS. The cells were pre-treated with vitamin C and the compound to be tested for 16 h at 37° C. and then stimulated with H2O2. The cells were then replaced in DMEM with vitamin C and dioctadeca-9,12-dienoate of (9Z,9′Z,12Z,12′Z)-2-(2,2-dimethyl-1,3-dioxolan-4-yl)-5-oxo-2,5-dihydrofuran-3,4-diyl. 72 hours after ending of stress, the fibroblasts entered into senescence: the senescent fibroblasts no longer proliferate but remain metabolically active (Hayflick, J. Invest. Dermatol., 73; 8-14, 1979). The cells were then lysed with the lysis buffer of the RNeasy® kit (QIAGEN).
(§3) The extracted RNAs were converted to complementary DNA following the indications of the Quantitect Reverse Transcription kit by Qiagen. Real-time PCR analyses were conducted using an iQ cycler fluorescence thermocycler (BIO-RAD).
(§4) The level of expression of the mRNAs coding for MMP-1, MMP-3, IL8 was analyzed using the real-time PCR technique. To normalize the level of expression of the gene of interest, the analysis strategy developed by Vandesompela et al., Genome Biol. 3: RESEARCH0034 (2002) was chosen. […] In our model, the three tested reference genes were the following: β-actin (Human β-actin), GAPDH (Human glyceraldehyde-3-phosphate dehydrogenase) and YWHAZ (Tyrosine-3-monooxygenase, tryptopgan-5-monooxygenase activation protein zeta polypeptide).
(§5) The first step normalizes the Ct values obtained for the gene of interest in relation to the Ct values obtained for the reference gene, for each experimental condition.
(§6) The following was therefore calculated: ΔCt=Ctgene of interest−Ctreference gene
(§7) The second step of the calculation determines the variation in the number of copies of the gene of interest during treatment. To do so ΔΔCt is calculated: ΔΔCt=ΔCtnon-treated NHF−ΔCttreated NHF
(§8) For the non-treated control, this QR is therefore equal to 1. It is then possible to calculate an induction or inhibition factor of the gene of interest compared with this control.
(§9) Statistical analysis was performed using a test called “one-way ANOVA”. Variance analysis using the Dunnett test then allows the comparing, for each of the analyzed genes, of the ΔCt values of normal adult fibroblasts with the compounds in the presence of H2O2 in both cases. This test then gives the “p value” characterizing the significance of the results obtained for both conditions The degree of significance was established as follows: • significant for p<0.05(*) • very significant for p<0.005(**) • highly significant for p<0.001(***) • non-significant for p>0.05. […]
(§10) It is also possible to calculate percentage inhibition of the level of expression of the different mRNAs by the active ingredients to be evaluated, using the formula: […]

B16-F10 cells = experiment: Assay of melanin in B16-F10 cells (colorimetric, α-MSH stimulated); assay type: cell-based, murine; details: for inhibition at 10 µM / inhibition at 20 µM / inhibition at 50 µM / inhibition at 100 µM: B16-F10, 72 hours, read-out: Percentage inhibition of intracellular melanin
Method: Similarly, to evidence the depigmenting activity of the compounds of general formula (I) according to the invention, the effect of these compounds was measured on the synthesis of melanin by colorimetric assay on a cell line of murine melanomas: line B16-F10.
This is a test to measure the synthesis of melanin by colorimetric assay on a cell line of murine melanomas: line B16-F10. This test allows the evaluation of the depigmenting property of active ingredients.
The B16-F10 cells were seeded onto 96-well plates in DMEM medium supplemented with FCS (fetal calf serum) and incubated 24 hours at 37° C., 5% CO2. The cells were then stimulated with α-MSH (to stimulate the synthesis of melanin, the stimulation observed was about 150%) and treated 72 hours with the active ingredients to be tested. Each concentration of active ingredient was tested at least in triplicate. Total melanin followed by intracellular melanin dissolved in lysis buffer were then assayed by absorbency reading at 405 nm. The total proteins were determined in the lysate and the results are expressed in mg melanin/mg proteins. The percentage activity was calculated as follows: […]
A negative value indicates an inhibition, whereas a positive value indicates induced synthesis of melanin.

IL-8 = experiment: Gene expression of IL8 in human dermal fibroblasts treated with H2O2 (real-time PCR); assay type: cell-based; details: for RQ (relative quantity of mRNA) IL-8 / % Inhibition of the level of mRNA expression IL-8: 3 μM; for RQ (relative quantity of mRNA) IL-8: senescent fibroblasts stimulated with H2O2, non-treated control = 1; for % Inhibition of the level of mRNA expression IL-8: vs H2O2 alone
Method: as §1, §2, §3, §4, §5, §6, §7, §8, §9, §10

[1] = system: Human dermal papilla cells; experiment: In vitro stimulation of the proliferation of dermal papilla cells (BrdU incorporation); assay type: cell-based; details: 12.5 μM; 60 h; best activity
Method: Human dermal papilla cells (Promocell) were placed in culture and held in early passage culture in DMEM medium supplemented with 10% FCS. They were then seeded in a 96-well plate in DMEM medium supplemented with 10% FCS for 12 h. The culture medium was replaced by serum-free DMEM medium then by DMEM supplemented with 1% FCS and molecules 1, 2, 3 and 4 at the different tested concentrations After incubation for 60 h, cell proliferation was evaluated by incorporation of BrdU.
The diagrams in appended FIG. 1 show the increase in BrdU incorporation and the stimulated cellular proliferation of the cells in the presence of the different molecules (as a percent of the control).

Structure (SMILES)	Percentage stimulation of the synthesis of hyaluronic acid (keratinocytes HaCaT; 30 μM) [%]	Percentage stimulation of the synthesis of hyaluronic acid (keratinocytes HaCaT; 300 μM) [%]	Effect on the synthesis of hyaluronic acid (keratinocytes HaCaT; 30 and 300 μM)	RQ (relative quantity of mRNA) MMP-1 (MMP-1)	% Inhibition of the level of mRNA expression MMP-1 (MMP-1)	inhibition at 10 µM (B16-F10 cells; Mus musculus) [%]	inhibition at 20 µM (B16-F10 cells; Mus musculus) [%]	inhibition at 50 µM (B16-F10 cells; Mus musculus) [%]	inhibition at 100 µM (B16-F10 cells; Mus musculus) [%]	RQ (relative quantity of mRNA) IL-8 (IL-8)	% Inhibition of the level of mRNA expression IL-8 (IL-8)	Percentage stimulation of the synthesis of hyaluronic acid (keratinocytes HaCaT; 2 μM) [%]	Percentage stimulation of the synthesis of hyaluronic acid (keratinocytes HaCaT; 20 μM) [%]	Inhibition of MMP1 expression compared with ascorbic acid (MMP-1)	Inhibition of the synthesis of intracellular melanin compared with vitamin C (B16-F10 cells)	IC50 (B16-F10 cells; Mus musculus, B16-F10, α-MSH stimulated, read-out: IC50 intracellular melanin) [µM]	Proliferation of the cells of the dermal papilla (percent of the control) [1] [%]	Inhibition of IL-8 expression compared with ascorbic acid (IL-8)
O=C1O[C@H]([C@@H](O)CO)C(O)=C1O [Ascorbic acid, ascorbic acid]	9	19	no effect	3.2	18%	-5	7	5	22	1.2	92*** %	–	–	–	–	–	–	–
CCCCC/C=C\C/C=C\CCCCCCCC(=O)OC1=C(OC(=O)CCCCCCC/C=C\C/C=C\CCCCC)C(C2COC(C)(C)O2)OC1=O (centres unmarked) [Molecule 1, diactodeca-9,12-dienoate of (9Z,9′Z,12Z,12′Z)-2-(2,2-dimethyl-1,3-dioxolan-4-yl)-5-oxo-2,5-dihydrofuran-3,4-diyl]	–	–	–	0.9	105*** %	9	21	41	71	0.9	102*** %	132	70	more substantially inhibits the expression of MMP1, MMP3 and IL-8 than ascorbic acid	greater than that of vitamin C	67	169	more substantially inhibits the expression of MMP1, MMP3 and IL-8 than ascorbic acid
